Results on three compounds are retold here after patent US20240209028A1, “CNP COMPOUNDS” (priority 2022, published 2024).

Starred links: 1 amine or outer side, 2 acyl side, 3 side chain; linkers in the order of their positions; H or OH if unused. Positions of bridges follow the written chain, without caps; N, C: chain ends. Residues, ends and D or L forms follow the SMILES beside them. *: point of attachment. C18 diacid = O=C(O)CCCCCCCCCCCCCCCCC(=O)*; γGlu = O=C(O)[C@H](CCC(=O)[*:2])N[*:1]; AEEA = NCCOCCOCC(=O)O

Data set [1] in a line: High-Molecular-Weight-Protein (HMWP) formation by SEC-UPLC. It counts as physicochemical. As to conditions: increase over two weeks at 37° C. An outline of the steps:
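Formulations at pH 4.0 or 6.5 incubated quiescently for two weeks at 37 °C; HMWP (peaks eluting before monomer, % of total peptide area) measured by SEC-UPLC, pH 2.4 mobile phase with 50% isopropanol, 50 °C, UV 215 nm. Value is HMWP increase, normalized to two weeks if needed.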
In general terms: SEC sorts molecules by how far they enter the pores of the column.

The nature of data set [2]: Thioflavin T (ThT) assay: lagtime and peptide recovery. It counts as physicochemical. The following applies: assay terminated after 45 hours; for LagTime (h) at pH 6.5: ThT assay, pH 6.5, 37° C. The procedure, abridged:
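ThT (final about 1 μM) was added to peptide supernatants at pH 4.0 and 6.5 and incubated at 37 °C with orbital shaking for 45 h. Fluorescence (ex 444/em 485 nm) was read every 20 min, and lag-time was taken as the time to onset of signal rise. Recovery is the RP-UPLC (215 nm) total peak area after vs. before incubation.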

On to `CC[C@H](C)[C@@H]1NC(=O)[C@H](CCCNC(=N)N)NC(=O)[C@H](CC(=O)O)NC(=O)[C@H](CC(C)C)NC(=O)[C@@H]2CCCN2C(=O)[C@H](CC(C)C)NC(=O)CNC(=O)[C@H](Cc2ccccc2)NC(=O)[C@@H](NC(=O)CNC(=O)[C@H](CCC(N)=O)NC(=O)[C@H](CO)NC(=O)[C@H](CC(C)C)NC(=O)CNC(=O)[C@H](CCCCN)NC(=O)[C@H](CCCCN)NC(=O)[C@H](CCC(N)=O)NC(=O)[C@H](C)NC(=O)CNC(=O)[C@H](CCCCN)NC(=O)[C@H](Cc2ccc(O)cc2)NC(=O)COCCOCCNC(=O)COCCOCCNC(=O)COCCOCCNC(=O)COCCOCCNC(=O)CC[C@H](NC(=O)CC[C@H](NC(=O)CC[C@H](NC(=O)CCCCCCCCCCCCCCCCC(=O)O)C(=O)O)C(=O)O)C(=O)O)CSSC[C@@H](C(=O)O)NC(=O)CNC(=O)[C@H](CC(C)C)NC(=O)CNC(=O)[C@H](CO)NC(=O)[C@H](CC(C)C)NC(=O)[C@H](CO)NC(=O)CNC1=O` [compound 9480] ({C18 diacid-γGlu-γGlu-γGlu-AEEA-AEEA-AEEA-AEEA}-YKGAQKKGLSQGCFGLPLDRIGSLSGLGC-OH; disulfide 13-29), for which the “2-Week HMWP formation at pH 6.5 (%), % relative to total peak area” value in data set [1] is reported as 2.65%. Further, the “LagTime (h) at pH 6.5” value in data set [2] amounted to 45 h.

In the case of `CC[C@H](C)[C@@H]1NC(=O)[C@H](CCCNC(=N)N)NC(=O)[C@H](CC(=O)O)NC(=O)[C@H](CC(C)C)NC(=O)[C@@H]2CCCN2C(=O)[C@H](CC(C)C)NC(=O)CNC(=O)[C@H](Cc2ccccc2)NC(=O)[C@@H](NC(=O)CNC(=O)[C@H](CO)NC(=O)[C@H](CO)NC(=O)[C@H](CC(C)C)NC(=O)CNC(=O)[C@H](CCCCN)NC(=O)[C@H](CCCCN)NC(=O)[C@H](CCC(N)=O)NC(=O)[C@H](C)NC(=O)CNC(=O)[C@H](CCCCN)NC(=O)[C@H](Cc2ccc(O)cc2)NC(=O)[C@H](CCCCN)NC(=O)[C@H](CCCNC(=N)N)NC(=O)[C@H](C)NC(=O)[C@H](CCC(N)=O)NC(=O)[C@@H]2CCCN2C(=O)[C@H](Cc2c[nH]cn2)NC(=O)[C@H](CCC(=O)O)NC(=O)[C@H](CCC(N)=O)NC(=O)CC[C@H](NC(=O)CC[C@H](NC(=O)CC[C@H](NC(=O)CC[C@H](NC(=O)CC[C@H](NC(=O)CCCCCCCCCCCCCCCCC(=O)O)C(=O)O)C(=O)O)C(=O)O)C(=O)O)C(=O)O)CSSC[C@@H](C(=O)O)NC(=O)CNC(=O)[C@H](CC(C)C)NC(=O)CNC(=O)[C@H](CO)NC(=O)[C@H](CC(C)C)NC(=O)[C@H](CO)NC(=O)CNC1=O` [compound 9482] ({C18 diacid-γGlu-γGlu-γGlu-γGlu-γGlu}-QEHPQARKYKGAQKKGLSSGCFGLPLDRIGSLSGLGC-OH; disulfide 21-37), the “2-Week HMWP formation at pH 6.5 (%), % relative to total peak area” value in data set [1] was determined as 1.96%. In data set [2], the “LagTime (h) at pH 6.5” value stood at 45 h.

Consider `CC[C@H](C)[C@@H]1NC(=O)[C@H](CCCNC(=N)N)NC(=O)[C@H](CCC(=O)O)NC(=O)[C@H](CC(C)C)NC(=O)[C@@H]2CCCN2C(=O)[C@H](CC(C)C)NC(=O)CNC(=O)[C@H](Cc2ccccc2)NC(=O)[C@@H](NC(=O)CNC(=O)[C@H](CO)NC(=O)[C@H](CO)NC(=O)[C@H](CC(C)C)NC(=O)CNC(=O)[C@H](CCCCN)NC(=O)[C@H](CCCCN)NC(=O)[C@H](CCC(N)=O)NC(=O)[C@H](C)NC(=O)CNC(=O)[C@H](CCCCN)NC(=O)[C@H](Cc2ccc(O)cc2)NC(=O)[C@H](CCCCN)NC(=O)[C@H](CCCNC(=N)N)NC(=O)[C@H](C)NC(=O)[C@H](CCC(N)=O)NC(=O)[C@@H]2CCCN2C(=O)[C@H](Cc2c[nH]cn2)NC(=O)[C@H](CCC(=O)O)NC(=O)[C@H](CCC(N)=O)NC(=O)CC[C@H](NC(=O)CC[C@H](NC(=O)CC[C@H](NC(=O)CC[C@H](NC(=O)CCCCCCCCCCCCCCCCC(=O)O)C(=O)O)C(=O)O)C(=O)O)C(=O)O)CSSC[C@@H](C(=O)O)NC(=O)CNC(=O)[C@H](CC(C)C)NC(=O)CNC(=O)[C@H](CO)NC(=O)[C@H](CC(C)C)NC(=O)[C@H](CO)NC(=O)CNC1=O` [compound 9483] ({C18 diacid-γGlu-γGlu-γGlu-γGlu}-QEHPQARKYKGAQKKGLSSGCFGLPLERIGSLSGLGC-OH; disulfide 21-37), for which the “2-Week HMWP formation at pH 4.0 (%), % relative to total peak area” value in data set [1] (pH 4.0) turned out to be 3.0%. Also, in data set [2] (ThT, 37° C., shaking), the “LagTime (h) at pH 4.0” value turned out to be 45 h.
